From ChEMBL document CHEMBL1201862, “PubChem BioAssay data set” (2004)
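Assay format: 96-well plates, 48-hour exposure. The concentration for 50% growth inhibition is given as GI50.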 The source made the active and inactive calls. No stated cut-off is given here; in the data, active = GI50 up to about 1.1 µM and inactive = higher.

How the values were obtained:
Experiment in all cases: NCI tumour cell line growth inhibition, 48 h
[1] = system: SNB-75
[2] = system: OVCAR-3
[3] = system: NCI-H522
[4] = system: HL-60
[5] = system: NCI-H226
[6] = system: DU-145
[7] = system: SF-268
[8] = system: SNB-19
[9] = system: NCI/ADR-RES
[10] = system: HCT-15
[11] = system: U-251
[12] = system: HT-29
[13] = system: SN12C
[14] = system: MDA-N
[15] = system: MDA-MB-435
[16] = system: OVCAR-8
[17] = system: LOX IMVI
[18] = system: EKVX
[19] = system: Hs-578T
[20] = system: BT-549
[21] = system: IGROV-1
[22] = system: RXF 393
[23] = system: UO-31
[24] = system: 786-0
[25] = system: NCI-H460
[26] = system: CCRF-CEM
[27] = system: KM12
[28] = system: SK-MEL-28
[29] = system: MDA-MB-231
[30] = system: HCT-116
[31] = system: K562
[32] = system: M14
[33] = system: A549
[34] = system: MOLT-4
[35] = system: NCI-H23
[36] = system: SK-MEL-2
[37] = system: PC-3
[38] = system: SF-295
[39] = system: SK-MEL-5
[40] = system: UACC-257
[41] = system: A498
[42] = system: CAKI-1
[43] = system: SW-620
[44] = system: OVCAR-4
[45] = system: Malme-3M
[46] = system: HOP-62
[47] = system: HOP-92
[48] = system: UACC-62
[49] = system: TK-10
[50] = system: OVCAR-5
[51] = system: SR
[52] = system: ACHN
[53] = system: MCF7
[54] = system: T47D
[55] = system: COLO 205
[56] = system: HCC 2998
[57] = system: SF-539
[58] = system: RPMI-8226

Compound: Nc1ccc(S(=O)(=O)NCCS(=O)(=O)O)cc1
- GI50 [1]: > 100 µM (inactive)
- GI50 [2]: > 100 µM (inactive)
- GI50 [3]: > 100 µM (inactive)
- GI50 [4]: > 100 µM (inactive)
- GI50 [5]: > 100 µM (inactive)
- GI50 [6]: > 100 µM (inactive)
- GI50 [7]: > 100 µM (inactive)
- GI50 [8]: > 100 µM (inactive)
- GI50 [9]: > 100 µM (inactive)
- GI50 [10]: > 100 µM
- GI50 [11]: > 100 µM (inactive)
- GI50 [12]: > 100 µM (inactive)
- GI50 [13]: > 100 µM (inactive)
- GI50 [14]: > 100 µM (inactive)
- GI50 [15]: > 100 µM (inactive)
- GI50 [16]: > 100 µM (inactive)
- GI50 [17]: > 100 µM (inactive)
- GI50 [18]: > 100 µM (inactive)
- GI50 [19]: > 100 µM (inactive)
- GI50 [20]: > 100 µM (inactive)
- GI50 [21]: > 100 µM (inactive)
- GI50 [22]: > 100 µM (inactive)
- GI50 [23]: > 100 µM (inactive)
- GI50 [24]: > 100 µM (inactive)
- GI50 [25]: > 100 µM (inactive)
- GI50 [26]: > 100 µM (inactive)
- GI50 [27]: > 100 µM (inactive)
- GI50 [28]: > 100 µM (inactive)
- GI50 [29]: > 100 µM (inactive)
- GI50 [30]: > 100 µM (inactive)
- GI50 [31]: > 100 µM (inactive)
- GI50 [32]: > 100 µM (inactive)
- GI50 [33]: > 100 µM (inactive)
- GI50 [34]: > 100 µM (inactive)
- GI50 [35]: > 100 µM (inactive)
- GI50 [36]: > 100 µM (inactive)
- GI50 [37]: > 100 µM (inactive)
- GI50 [38]: > 100 µM (inactive)
- GI50 [39]: > 100 µM (inactive)
- GI50 [40]: > 100 µM (inactive)
- GI50 [41]: > 100 µM (inactive)
- GI50 [42]: > 100 µM (inactive)
- GI50 [43]: > 100 µM (inactive)
- GI50 [44]: > 100 µM (inactive)
- GI50 [45]: > 100 µM (inactive)
- GI50 [46]: > 100 µM (inactive)
- GI50 [47]: > 100 µM (inactive)
- GI50 [48]: > 100 µM (inactive)
- GI50 [49]: > 100 µM (inactive)
- GI50 [50]: > 100 µM (inactive)
- GI50 [51]: > 100 µM (inactive)
- GI50 [52]: > 100 µM (inactive)

Compound: COc1cc(C(=O)n2c3ccc(Br)cc3c3nc4ccccc4nc32)cc(OC)c1OC
- GI50 [1]: 26.2 µM (inactive)
- GI50 [53]: > 100 µM (inactive)
- GI50 [2]: > 100 µM (inactive)
- GI50 [3]: 36.6 µM (inactive)
- GI50 [4]: > 100 µM (inactive)
- GI50 [5]: > 100 µM (inactive)
- GI50 [6]: > 100 µM (inactive)
- GI50 [7]: 60.5 µM (inactive)
- GI50 [8]: 51.6 µM (inactive)
- GI50 [9]: > 100 µM (inactive)
- GI50 [10]: > 100 µM
- GI50 [11]: > 100 µM (inactive)
- GI50 [12]: > 100 µM (inactive)
- GI50 [13]: > 100 µM (inactive)
- GI50 [14]: > 100 µM (inactive)
- GI50 [15]: > 100 µM (inactive)
- GI50 [16]: > 100 µM (inactive)
- GI50 [17]: > 100 µM (inactive)
- GI50 [18]: > 100 µM (inactive)
- GI50 [20]: 37.3 µM (inactive)
- GI50 [21]: > 100 µM (inactive)
- GI50 [22]: 19.7 µM (inactive)
- GI50 [23]: > 100 µM (inactive)
- GI50 [24]: 44.8 µM (inactive)
- GI50 [25]: > 100 µM (inactive)
- GI50 [26]: > 100 µM (inactive)
- GI50 [27]: > 100 µM (inactive)
- GI50 [28]: > 100 µM (inactive)
- GI50 [54]: > 100 µM (inactive)
- GI50 [29]: 72.8 µM (inactive)
- GI50 [30]: > 100 µM (inactive)
- GI50 [31]: > 100 µM (inactive)
- GI50 [32]: > 100 µM (inactive)
- GI50 [34]: 50.8 µM (inactive)
- GI50 [35]: > 100 µM (inactive)
- GI50 [55]: > 100 µM (inactive)
- GI50 [36]: 62.8 µM (inactive)
- GI50 [37]: > 100 µM (inactive)
- GI50 [38]: 64 µM (inactive)
- GI50 [39]: > 100 µM (inactive)
- GI50 [40]: > 100 µM (inactive)
- GI50 [56]: > 100 µM (inactive)
- GI50 [42]: > 100 µM (inactive)
- GI50 [43]: > 100 µM (inactive)
- GI50 [44]: > 100 µM (inactive)
- GI50 [45]: > 100 µM (inactive)
- GI50 [46]: > 100 µM (inactive)
- GI50 [47]: 54.5 µM (inactive)
- GI50 [48]: 42.6 µM (inactive)
- GI50 [49]: 32.7 µM (inactive)
- GI50 [50]: > 100 µM (inactive)
- GI50 [57]: 23.8 µM (inactive)
- GI50 [51]: > 100 µM (inactive)
- GI50 [52]: 37.9 µM (inactive)
- GI50 [58]: > 100 µM (inactive)
